In ChEMBL document CHEMBL1201862, “PubChem BioAssay data set” (2004):
The source made the active and inactive calls.

Columns and labels:
Paired box protein Pax-8 = Paired box protein Pax-8 (Homo sapiens, UniProt Q06710); assay: PAX8 transcriptional activity inhibition in RMG-I – RMG-I cells, luciferase, cherry-pick, dose response (AID 687027); type: functional, cell-based;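 further: luciferase reporter driven by Pax8 target thyroperoxidase promoter measured by SteadyGlo luminescence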
INS1 = assay: INS-1E survival protection against cytokine death – cell-based, luminescence, retest, dose response (AID 449756); type: functional; settings: Rattus norvegicus;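 further: cell death triggered by IL-1 beta plus TNF-alpha plus IFN-gamma mixture; protective hits raise ATP signal compared with cytokine alone wells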
Melanocortin receptor 4 = Melanocortin receptor 4 (Homo sapiens, UniProt P32245); assay: inhibitors of MC4R cAMP signaling – cell-based, TR-FRET, biased antagonists, dose response (AID 602298); type: functional;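 further: antagonist potency against agonist-stimulated cAMP production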
[1] = Luminescence Cell-Based Dose Retest to Confirm Inhibitors of Cancer Stem Cells. [Related pubchem assays (depositor defined):AID2717, AID2721]; type: functional; settings: Homo sapiens
[2] = cAMP pathway inhibition in counterscreen cell line – TR-FRET cAMP detection, counter-screen for MC4R biased antagonist project, dose response (AID 602305); type: functional, cell-based;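 further: U2OS cells stimulated with forskolin near its EC80 as the cAMP inducer; potency is for inhibition of forskolin-stimulated cAMP signaling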
[3] = general cell-killing toxicity readout – plate reader, dry powder samples, cytotoxicity control for PAX8 inhibitor project, dose response (AID 743021); type: functional, cell-based
[4] = target: Nuclear receptor subfamily 5 group A member 2 (Homo sapiens, UniProt O00482); type: functional, cell-based;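 further: HEK293T cells transfected with LRH-1 and a StAR promoter luciferase reporter; potency for inhibitors that lower LRH-1 driven reporter light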
[5] = nonselective StAR promoter luciferase inhibitors – cell-based, luminescence, luciferase reporter, counter-screen for LRH-1 inverse agonist project, dose response (AID 651969); type: functional
Steroidogenic factor 1 = Steroidogenic factor 1 (Homo sapiens, UniProt Q13285); assay: Counterscreen for inverse agonists of the liver receptor homolog-1 (LRH-1; NR5A2): Luminescence-based cell-based high throughput dose response assay to identify inverse agonists of the Steroidogenic Factor 1 Nuclear Receptor (SF1; NR5A1).; type: functional
[6] = target: Arf-GAP with SH3 domain, ANK repeat and PH domain-containing protein 1 (Homo sapiens, UniProt Q9ULH1); type: functional;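 further: biochemical fluorescence polarization dose–response screen measuring inhibition of ASAP1; ASAP1 GAP domain stimulating GTP hydrolysis by truncated human ARF1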
[7] = target: Dual specificity protein phosphatase 3 (Homo sapiens, UniProt P51452); assay: VHR phosphatase inhibition, dose response, selectivity assay for STEP inhibitor project, biochemical (AID 602374); type: functional; settings: read-out: IC50_Mean
[8] = target: T1, Corticotropin-releasing factor receptor 2/Corticotropin-releasing factor-binding protein (Homo sapiens, UniProt P24387+Q13324); assay: Dose Response confirmation of uHTS hits for small molecule antagonists of the CRF-binding protein and CRF-R2 receptor complex.; type: functional; settings: read-out: IC50_Mean
T1 sequence (Q13324 whole entry): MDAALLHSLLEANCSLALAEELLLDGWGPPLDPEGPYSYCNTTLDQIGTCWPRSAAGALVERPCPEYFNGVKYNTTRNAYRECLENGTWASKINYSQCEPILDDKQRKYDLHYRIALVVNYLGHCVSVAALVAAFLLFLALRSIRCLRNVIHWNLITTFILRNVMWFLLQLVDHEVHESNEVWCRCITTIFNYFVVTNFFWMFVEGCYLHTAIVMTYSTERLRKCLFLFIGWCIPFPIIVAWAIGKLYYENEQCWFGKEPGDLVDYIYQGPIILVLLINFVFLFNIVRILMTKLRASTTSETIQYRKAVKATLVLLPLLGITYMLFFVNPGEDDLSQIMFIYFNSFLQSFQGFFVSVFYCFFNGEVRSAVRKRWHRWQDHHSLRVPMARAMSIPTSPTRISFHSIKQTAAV
T1 sequence (P24387 whole entry): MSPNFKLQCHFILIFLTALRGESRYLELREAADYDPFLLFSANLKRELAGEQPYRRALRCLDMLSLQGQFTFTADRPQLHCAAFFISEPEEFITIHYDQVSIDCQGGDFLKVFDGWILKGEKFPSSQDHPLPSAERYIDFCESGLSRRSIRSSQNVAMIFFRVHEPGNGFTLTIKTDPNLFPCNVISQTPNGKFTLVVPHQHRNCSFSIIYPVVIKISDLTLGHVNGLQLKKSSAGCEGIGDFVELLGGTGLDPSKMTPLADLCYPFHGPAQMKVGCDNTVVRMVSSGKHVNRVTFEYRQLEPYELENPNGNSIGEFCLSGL

[9] = target: T2, Low molecular weight phosphotyrosine protein phosphatase (Homo sapiens, UniProt P24666); type: functional; settings: read-out: IC50_Mean
T2 sequence (P24666 whole entry): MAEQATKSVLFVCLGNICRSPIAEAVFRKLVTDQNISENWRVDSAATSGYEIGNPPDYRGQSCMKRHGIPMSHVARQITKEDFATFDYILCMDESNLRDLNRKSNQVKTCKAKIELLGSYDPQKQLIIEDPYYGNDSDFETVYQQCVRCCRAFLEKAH

[10] = target: T1, Corticotropin-releasing factor receptor 2/Corticotropin-releasing factor-binding protein; assay: activators of CRF receptor 2 with binding protein – uHTS hits, confirmation (AID 602473); type: functional; settings: read-out: EC50_Mean
[11] = target: Tyrosine-protein phosphatase non-receptor type 5 (Homo sapiens, UniProt P54829); assay: PTPN5 enzyme inhibition – biochemical, fluorescence intensity, uHTS hits, confirmation (AID 602372); type: functional; settings: read-out: IC50_Mean
[12] = target: Tyrosine-protein phosphatase non-receptor type 11 (Homo sapiens, UniProt Q06124); assay: PTPN11 enzyme inhibitors – biochemical, selectivity assay for STEP inhibitor project, dose response (AID 602367); type: functional; settings: read-out: IC50_Mean
[13] = target: T2, Low molecular weight phosphotyrosine protein phosphatase; type: functional; settings: read-out: IC50_Mean; remark: listed apart in the source
[14] = target: T3, Small ubiquitin-related modifier 1 (Homo sapiens, UniProt P63165); assay: SUMO1 protein interaction blockers, potency – biochemical, fluorescence polarization, uHTS hits, dose response (AID 624382); type: functional; settings: read-out: IC50_Mean
[15] = target: T4, Carboxy-terminal domain RNA polymerase II polypeptide A small phosphatase 1 (Homo sapiens, UniProt Q9GZU7); assay: CTDSP1 inhibitors, concentration-response, biochemical, absorbance readout, ultra-high-throughput screen actives (AID 540297); type: functional
T4 sequence (Q9GZU7 whole entry): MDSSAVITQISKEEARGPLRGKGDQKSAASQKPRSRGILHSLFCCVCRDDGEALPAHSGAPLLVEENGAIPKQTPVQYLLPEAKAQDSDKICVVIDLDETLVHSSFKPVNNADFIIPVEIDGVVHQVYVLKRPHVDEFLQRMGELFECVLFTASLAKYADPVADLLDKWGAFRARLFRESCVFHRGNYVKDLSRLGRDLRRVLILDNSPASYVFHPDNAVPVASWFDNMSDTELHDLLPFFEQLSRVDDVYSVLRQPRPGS

[16] = target: T3, Small ubiquitin-related modifier 1; assay: SUMO1 protein-protein binding blockers, potency – biochemical, FRET, dose response (AID 624383); type: functional; settings: read-out: IC50_Mean
[17] = target: Adenosylmethionine-8-amino-7-oxononanoate aminotransferase (Mycobacterium tuberculosis, UniProt P9WQ81); assay: Mycobacterium tuberculosis BioA enzyme inhibitor Measured in Biochemical System Using Plate Reader - 2163-02_Inhibitor_Dose_CherryPick_Activity.; type: functional, Mycobacterium tuberculosis UT205
BJ [18] = assay: BJ-TERT-LT-ST fibroblast viability loss – cell-based, RAS-independent, luminescence, dose response (AID 1935); type: functional; settings: Homo sapiens;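 further: BJ fibroblasts immortalized with TERT plus LT and ST oncogenes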
[19] = target: Heat shock protein HSP 90-alpha (Homo sapiens, UniProt P07900); type: functional, organism-based
[20] = target: T5, Replicative DNA helicase DnaB (Mycobacterium tuberculosis, UniProt P9WMR3); assay: DnaB intein splicing inhibitors, dose response, biochemical, cell-free fluorescence (AID 449749); type: functional
T5 sequence (P9WMR3 whole entry): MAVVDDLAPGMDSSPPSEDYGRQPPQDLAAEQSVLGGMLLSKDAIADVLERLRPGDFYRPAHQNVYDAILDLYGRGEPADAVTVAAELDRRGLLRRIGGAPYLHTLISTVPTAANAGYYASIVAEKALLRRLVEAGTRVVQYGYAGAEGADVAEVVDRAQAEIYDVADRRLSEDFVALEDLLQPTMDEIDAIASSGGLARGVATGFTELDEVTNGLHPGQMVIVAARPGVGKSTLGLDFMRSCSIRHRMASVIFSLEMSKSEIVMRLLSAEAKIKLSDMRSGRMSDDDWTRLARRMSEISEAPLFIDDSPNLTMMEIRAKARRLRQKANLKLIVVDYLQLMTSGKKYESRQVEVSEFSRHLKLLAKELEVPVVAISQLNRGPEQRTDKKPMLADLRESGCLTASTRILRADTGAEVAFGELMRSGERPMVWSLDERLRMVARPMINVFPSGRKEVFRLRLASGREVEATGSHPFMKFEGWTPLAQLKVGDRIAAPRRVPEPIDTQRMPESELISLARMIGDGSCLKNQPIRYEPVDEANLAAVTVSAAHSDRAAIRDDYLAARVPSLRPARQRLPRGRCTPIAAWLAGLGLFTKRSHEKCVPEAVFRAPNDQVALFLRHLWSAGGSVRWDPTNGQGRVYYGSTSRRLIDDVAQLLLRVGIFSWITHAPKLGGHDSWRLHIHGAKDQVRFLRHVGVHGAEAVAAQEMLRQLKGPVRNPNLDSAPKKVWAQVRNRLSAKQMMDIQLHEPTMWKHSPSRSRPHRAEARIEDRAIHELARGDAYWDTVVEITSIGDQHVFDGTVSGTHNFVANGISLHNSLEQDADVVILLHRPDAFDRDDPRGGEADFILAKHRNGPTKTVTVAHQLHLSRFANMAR

[21] = DRD fibroblast viability loss – cell-based, non-viral oncogenic, luminescence, dose response (AID 1934); type: functional; settings: Homo sapiens
BJ [22] = assay: growth inhibition of engineered Ras-driven BJ cells – cell-based, alamar blue fluorescence, cherrypicked samples, dose response (AID 2631); type: functional; settings: Homo sapiens;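 further: confirmatory dose-response assay in RAS-dependent BJ fibroblasts engineered with TERT, LT and ST, with cytotoxicity read by fluorescence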
BJ [23] = assay: BJ-TERT fibroblast viability loss – cell-based, RAS-independent, luminescence, dose response (AID 1933); type: functional; settings: Homo sapiens
[24] = Fluorescence-based cell-based high throughput dose response assay for inhibitors of the interaction of nucleotide-binding oligomerization domain containing 2 (NOD2) and the receptor-interacting serine-threonine kinase 2 (RIPK2).; type: functional; settings: Homo sapiens
Protein RecA = target: T6, Protein RecA (Mycobacterium tuberculosis, UniProt P9WHJ3); assay: Fluorescence Cell-Free Homogeneous Dose Retest to Identify Inhibitors of RecA-Intein Splicing Activity. [Related pubchem assays (depositor defined):AID2097, AID2223, AID489010, AID492950]; type: functional
T6 sequence (P9WHJ3 whole entry): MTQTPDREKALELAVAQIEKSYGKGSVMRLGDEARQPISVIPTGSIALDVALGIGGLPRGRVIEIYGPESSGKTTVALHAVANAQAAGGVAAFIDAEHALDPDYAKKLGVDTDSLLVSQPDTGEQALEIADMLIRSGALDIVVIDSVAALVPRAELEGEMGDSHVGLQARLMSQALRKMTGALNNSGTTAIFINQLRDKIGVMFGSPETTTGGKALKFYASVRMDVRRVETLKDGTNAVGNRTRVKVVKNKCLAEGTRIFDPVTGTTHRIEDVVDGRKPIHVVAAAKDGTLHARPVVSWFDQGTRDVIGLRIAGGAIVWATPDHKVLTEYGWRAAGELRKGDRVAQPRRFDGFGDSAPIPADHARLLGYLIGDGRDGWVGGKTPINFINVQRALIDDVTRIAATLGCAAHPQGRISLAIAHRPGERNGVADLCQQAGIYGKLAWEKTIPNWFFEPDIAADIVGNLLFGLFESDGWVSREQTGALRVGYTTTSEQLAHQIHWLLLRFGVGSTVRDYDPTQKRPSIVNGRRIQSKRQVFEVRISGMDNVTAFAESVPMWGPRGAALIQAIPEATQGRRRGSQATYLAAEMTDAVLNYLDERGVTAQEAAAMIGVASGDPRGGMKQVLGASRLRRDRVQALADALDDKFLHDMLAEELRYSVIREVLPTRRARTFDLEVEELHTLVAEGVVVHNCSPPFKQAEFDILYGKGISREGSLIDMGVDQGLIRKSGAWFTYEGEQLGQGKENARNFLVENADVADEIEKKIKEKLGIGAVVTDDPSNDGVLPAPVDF

BJ [25] = assay: cells; type: functional, cell-based; settings: Homo sapiens

Steroidogenic factor 1, sequence (Q13285 whole entry, the tested form may be a part): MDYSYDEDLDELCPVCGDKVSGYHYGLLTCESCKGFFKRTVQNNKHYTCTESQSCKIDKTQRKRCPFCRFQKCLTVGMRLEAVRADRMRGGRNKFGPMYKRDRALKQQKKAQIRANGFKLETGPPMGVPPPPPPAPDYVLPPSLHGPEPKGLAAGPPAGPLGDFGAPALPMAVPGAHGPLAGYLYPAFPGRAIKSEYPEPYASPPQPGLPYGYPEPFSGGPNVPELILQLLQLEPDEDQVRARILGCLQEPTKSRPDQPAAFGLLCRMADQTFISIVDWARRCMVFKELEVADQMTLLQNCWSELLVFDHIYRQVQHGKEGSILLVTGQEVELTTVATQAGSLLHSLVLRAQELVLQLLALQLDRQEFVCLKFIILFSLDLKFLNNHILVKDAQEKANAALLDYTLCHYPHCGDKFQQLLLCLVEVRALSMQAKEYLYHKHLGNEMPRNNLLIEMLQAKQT
T3 sequence (P63165 whole entry, the tested form may be a part): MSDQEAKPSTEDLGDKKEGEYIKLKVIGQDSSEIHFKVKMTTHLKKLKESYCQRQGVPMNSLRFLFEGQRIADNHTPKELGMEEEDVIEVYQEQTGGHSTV
Tyrosine-protein phosphatase non-receptor type 5, sequence (P54829 whole entry): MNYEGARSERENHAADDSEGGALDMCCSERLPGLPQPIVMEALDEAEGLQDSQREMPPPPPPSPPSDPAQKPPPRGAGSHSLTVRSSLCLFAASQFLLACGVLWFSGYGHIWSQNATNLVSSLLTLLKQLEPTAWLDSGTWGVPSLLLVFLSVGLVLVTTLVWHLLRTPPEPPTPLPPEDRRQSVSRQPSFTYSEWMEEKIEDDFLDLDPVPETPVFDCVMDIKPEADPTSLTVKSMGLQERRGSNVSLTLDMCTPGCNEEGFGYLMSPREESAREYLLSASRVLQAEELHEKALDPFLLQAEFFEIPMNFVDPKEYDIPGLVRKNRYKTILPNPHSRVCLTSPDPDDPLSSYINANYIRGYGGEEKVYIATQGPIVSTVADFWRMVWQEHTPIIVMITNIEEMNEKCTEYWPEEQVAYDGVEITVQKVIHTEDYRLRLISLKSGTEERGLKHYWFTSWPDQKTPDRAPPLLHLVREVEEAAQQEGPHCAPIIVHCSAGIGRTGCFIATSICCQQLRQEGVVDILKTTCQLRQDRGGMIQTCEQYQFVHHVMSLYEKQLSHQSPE
Arf-GAP with SH3 domain, ANK repeat and PH domain-containing protein 1, sequence (Q9ULH1 whole entry, the tested form may be a part): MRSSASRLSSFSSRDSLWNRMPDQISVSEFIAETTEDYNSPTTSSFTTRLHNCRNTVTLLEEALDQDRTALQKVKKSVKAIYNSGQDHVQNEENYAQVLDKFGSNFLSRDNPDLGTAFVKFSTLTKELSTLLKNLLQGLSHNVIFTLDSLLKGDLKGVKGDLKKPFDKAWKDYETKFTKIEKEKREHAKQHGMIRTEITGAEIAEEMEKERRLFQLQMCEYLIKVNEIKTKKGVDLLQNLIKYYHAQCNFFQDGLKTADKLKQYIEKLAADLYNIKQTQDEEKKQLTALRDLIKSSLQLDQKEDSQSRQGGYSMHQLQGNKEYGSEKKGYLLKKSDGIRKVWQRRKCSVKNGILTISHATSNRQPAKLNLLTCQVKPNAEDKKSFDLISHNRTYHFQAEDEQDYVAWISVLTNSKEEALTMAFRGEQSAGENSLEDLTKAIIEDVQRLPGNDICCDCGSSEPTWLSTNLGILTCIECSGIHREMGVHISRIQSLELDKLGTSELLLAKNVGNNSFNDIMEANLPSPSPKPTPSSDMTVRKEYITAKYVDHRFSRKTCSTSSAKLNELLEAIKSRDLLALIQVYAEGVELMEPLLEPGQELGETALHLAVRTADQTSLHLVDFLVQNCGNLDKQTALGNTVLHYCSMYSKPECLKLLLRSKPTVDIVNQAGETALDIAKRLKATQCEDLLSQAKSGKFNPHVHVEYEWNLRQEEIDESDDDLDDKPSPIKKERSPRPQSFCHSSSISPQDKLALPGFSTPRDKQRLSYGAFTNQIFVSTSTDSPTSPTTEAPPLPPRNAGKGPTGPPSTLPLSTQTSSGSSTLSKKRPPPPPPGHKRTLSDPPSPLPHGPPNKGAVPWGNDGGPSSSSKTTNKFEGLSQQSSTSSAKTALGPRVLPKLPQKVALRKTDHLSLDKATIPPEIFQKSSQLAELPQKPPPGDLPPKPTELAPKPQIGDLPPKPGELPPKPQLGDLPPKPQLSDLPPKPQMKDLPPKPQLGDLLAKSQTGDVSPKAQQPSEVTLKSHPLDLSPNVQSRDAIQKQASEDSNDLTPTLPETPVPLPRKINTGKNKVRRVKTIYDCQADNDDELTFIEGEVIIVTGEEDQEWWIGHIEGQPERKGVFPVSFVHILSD
Tyrosine-protein phosphatase non-receptor type 11, sequence (Q06124 whole entry): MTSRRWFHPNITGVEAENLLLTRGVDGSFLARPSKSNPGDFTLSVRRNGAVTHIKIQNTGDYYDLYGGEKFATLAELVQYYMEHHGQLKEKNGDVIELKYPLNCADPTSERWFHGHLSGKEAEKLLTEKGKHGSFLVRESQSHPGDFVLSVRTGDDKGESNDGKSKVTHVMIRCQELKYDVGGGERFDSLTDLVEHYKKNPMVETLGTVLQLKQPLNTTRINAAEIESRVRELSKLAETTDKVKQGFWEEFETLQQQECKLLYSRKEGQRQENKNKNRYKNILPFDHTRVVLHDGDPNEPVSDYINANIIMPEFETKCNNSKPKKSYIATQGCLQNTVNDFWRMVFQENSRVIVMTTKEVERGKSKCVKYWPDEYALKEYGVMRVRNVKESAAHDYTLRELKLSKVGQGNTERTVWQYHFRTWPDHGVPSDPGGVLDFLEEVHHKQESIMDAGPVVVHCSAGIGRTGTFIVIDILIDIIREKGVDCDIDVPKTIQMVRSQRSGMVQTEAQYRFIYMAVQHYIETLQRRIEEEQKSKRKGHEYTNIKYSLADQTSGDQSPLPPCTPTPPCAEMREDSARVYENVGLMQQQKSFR
Adenosylmethionine-8-amino-7-oxononanoate aminotransferase, sequence (P9WQ81 whole entry): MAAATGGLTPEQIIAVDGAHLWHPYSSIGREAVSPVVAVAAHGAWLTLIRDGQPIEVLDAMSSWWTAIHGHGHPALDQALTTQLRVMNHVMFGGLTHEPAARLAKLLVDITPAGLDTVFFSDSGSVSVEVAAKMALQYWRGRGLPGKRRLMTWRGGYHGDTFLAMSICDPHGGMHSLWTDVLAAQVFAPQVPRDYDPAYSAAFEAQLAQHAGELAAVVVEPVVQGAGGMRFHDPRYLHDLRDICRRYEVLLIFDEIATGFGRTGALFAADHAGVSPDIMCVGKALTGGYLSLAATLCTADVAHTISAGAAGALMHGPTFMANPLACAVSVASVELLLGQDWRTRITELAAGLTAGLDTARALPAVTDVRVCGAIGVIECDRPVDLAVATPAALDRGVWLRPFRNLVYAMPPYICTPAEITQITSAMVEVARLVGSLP
Nuclear receptor subfamily 5 group A member 2, sequence (O00482 whole entry): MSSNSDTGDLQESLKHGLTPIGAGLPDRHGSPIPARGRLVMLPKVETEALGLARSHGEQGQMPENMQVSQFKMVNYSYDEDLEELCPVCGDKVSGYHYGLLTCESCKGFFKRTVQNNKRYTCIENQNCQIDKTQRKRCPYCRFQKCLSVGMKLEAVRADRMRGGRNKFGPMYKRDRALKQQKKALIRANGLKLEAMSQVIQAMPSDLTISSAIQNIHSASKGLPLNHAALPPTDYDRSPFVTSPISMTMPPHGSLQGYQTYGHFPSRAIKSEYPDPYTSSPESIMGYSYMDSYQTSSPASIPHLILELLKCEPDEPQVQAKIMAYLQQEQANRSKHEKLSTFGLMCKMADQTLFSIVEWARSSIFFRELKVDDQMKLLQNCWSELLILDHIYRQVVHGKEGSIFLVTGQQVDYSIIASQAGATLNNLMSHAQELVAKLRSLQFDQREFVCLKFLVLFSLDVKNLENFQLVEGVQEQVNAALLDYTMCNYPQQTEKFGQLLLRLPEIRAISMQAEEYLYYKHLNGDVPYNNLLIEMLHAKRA
Dual specificity protein phosphatase 3, sequence (P51452 whole entry): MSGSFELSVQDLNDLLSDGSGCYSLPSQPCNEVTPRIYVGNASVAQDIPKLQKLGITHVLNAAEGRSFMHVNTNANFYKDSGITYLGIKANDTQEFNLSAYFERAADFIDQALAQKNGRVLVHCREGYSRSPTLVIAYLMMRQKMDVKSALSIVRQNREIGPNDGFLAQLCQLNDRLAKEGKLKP
Paired box protein Pax-8, sequence (Q06710 whole entry): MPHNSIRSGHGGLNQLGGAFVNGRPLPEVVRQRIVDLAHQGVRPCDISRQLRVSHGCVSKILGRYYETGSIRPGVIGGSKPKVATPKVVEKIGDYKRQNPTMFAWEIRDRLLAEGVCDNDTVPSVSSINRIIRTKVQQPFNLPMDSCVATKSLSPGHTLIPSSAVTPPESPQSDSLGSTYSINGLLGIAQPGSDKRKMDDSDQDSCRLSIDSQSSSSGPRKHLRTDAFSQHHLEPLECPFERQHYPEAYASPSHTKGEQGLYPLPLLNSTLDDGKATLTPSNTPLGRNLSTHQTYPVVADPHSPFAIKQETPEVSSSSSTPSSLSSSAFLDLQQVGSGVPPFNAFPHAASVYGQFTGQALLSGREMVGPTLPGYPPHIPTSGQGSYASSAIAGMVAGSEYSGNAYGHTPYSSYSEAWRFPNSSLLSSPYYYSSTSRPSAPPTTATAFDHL
Melanocortin receptor 4, sequence (P32245 whole entry): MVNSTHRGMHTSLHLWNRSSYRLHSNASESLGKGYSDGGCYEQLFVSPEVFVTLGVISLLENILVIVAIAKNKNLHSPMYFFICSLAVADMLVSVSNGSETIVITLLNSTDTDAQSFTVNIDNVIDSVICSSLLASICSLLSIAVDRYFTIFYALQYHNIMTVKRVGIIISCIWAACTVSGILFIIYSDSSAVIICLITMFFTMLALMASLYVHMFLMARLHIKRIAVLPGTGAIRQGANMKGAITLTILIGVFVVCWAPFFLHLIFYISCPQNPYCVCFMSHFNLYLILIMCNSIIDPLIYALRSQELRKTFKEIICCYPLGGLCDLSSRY

C=C1CCc2c([nH]c3ccc(OCC(C)C)cc23)C1=O
AC50 (Paired box protein Pax-8): 6.14 µM (active)
AC50 (INS1): 3.69 µM (active)
IC50 (Melanocortin receptor 4): 6.05 µM (active)
AC50 [1]: 2.08 µM (active)
IC50 [2]: > 64.6 µM (inactive)
AC50 [3]: 35.6 µM (active)

O=C(CCl)NCCCN(C(=O)C(Cl)Cl)c1ccc([N+](=O)[O-])cc1
IC50 [4]: 7.45 µM (active)
IC50 [5]: 18.8 µM (inactive)
IC50 (Steroidogenic factor 1): 4.97 µM (active)

COc1ccc(C(=O)Nc2nc3cc4c(cc3s2)OCO4)c(OC)c1
IC50 [6]: 50.8 µM (inactive)

O=[N+]([O-])c1ccc(O)c(Nc2ncnc3ccccc23)c1
IC50 [7]: 1.77 µM (active)
IC50 [8]: > 47.1 µM (inactive)
IC50 [9]: 16.1 µM (active)
EC50 [10]: > 53 µM (inactive)
IC50 [11]: 13.3 µM (active)
IC50 [12]: 1.98 µM (active)
IC50 [13]: 7.06 µM (active)

Cc1ccc2cccc(OCC(=O)NCCC3=CCCCC3)c2n1
IC50 [4]: 4.06 µM (active)
IC50 [5]: 35.8 µM (inactive)
IC50 (Steroidogenic factor 1): 2.83 µM (active)

COCCNc1nc(NCc2cc(-c3ccc(OC)cc3)no2)c2sccc2n1
IC50 [9]: 9.53 µM (active)
IC50 [13]: 23.3 µM (inactive)

O=C(N/N=C/c1ccc(Cl)c([N+](=O)[O-])c1)c1ccc2c(c1)OCCO2
IC50 [14]: > 66.6 µM (inactive)
IC50 [15]: 4.44 µM (active)
IC50 [7]: 2.29 µM (active)
IC50 [16]: 9.57 µM (active)
IC50 [6]: 10.9 µM (inactive)
IC50 [11]: 7.3 µM (active)
IC50 [12]: 1.93 µM (active)

O=C(Nc1ccc2c(c1)[C@H]1C[C@@H](CC(=O)N3CCc4ccccc4C3)O[C@@H](CO)[C@H]1O2)c1cccnc1
AC50 [17]: 10.5 µM (active)

COCCNC(=O)C[C@H]1CC[C@@H]2[C@@H](COc3ccc(NC(=O)Nc4cccc(F)c4)cc3C(=O)N2C)O1
AC50 [17]: 5.19 µM (active)

O=[N+]([O-])c1cc(Br)c(Nc2ccccc2)c([N+](=O)[O-])c1
EC50 (BJ [18]): 28.3 µM (inconclusive)
AC50 [19]: 7.5 µM (active)
AC50 [20]: 5.68 µM (active)
EC50 [21]: 4.5 µM (active)
EC50 (BJ [22]): 1.37 µM (active)
EC50 (BJ [23]): 5.53 µM (inconclusive)
IC50 [24]: 2.12 µM (active)
EC50 (Protein RecA): 5.15 µM (active)
EC50 (BJ [25]): 2.57 µM (inconclusive)
